Laboratory results from patent US9708314B2, “Heterocyclic amide compound” (NISSAN CHEMICAL INDUSTRIES, LTD., priority 2013, dated 2017).

How the values were obtained:
Type in all cases: in vivo
[1] = tested on: Echinochloa crus-galli var. crus-galli; test: Test Example 3: herbicidal effect by application to foliage (Wagner pot, water depth 0.1-0.5 cm); details: Nineteenth Table
Outline: (§1)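 Visual 0–5 rating of herbicidal ratio, taken 3 weeks after foliar spray of a diluted emulsion formulation at rates expressed as g/ha. Plants had been sown in alluvial soil under 0.1–0.5 cm water and grown 14 days at 25–30 °C under glass before application.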

Leptochloa chinensis = test: as above; details: Nineteenth Table
Outline: as §1

Cyperus difformis = test: as above; details: Nineteenth Table
Outline: as §1

Stellaria media = test: Test Example 4: herbicidal effect by application to foliage (diluvial soil, plastic box); details: application to foliage, application herbicide amount 320 g/ha
Outline: (§2)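 Scores run from 0 (herbicidal ratio ≤5%) to 5 (≥90%, almost fully withered) and were assessed three weeks after foliar spraying. Seedlings had been raised for 14 days at 25-30° C in sterilized diluvial soil before treatment, with the emulsion diluted in water to the stated g/ha dose.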

Amaranthus retroflexus = test: as above; details: application to foliage, application herbicide amount 320 g/ha
Outline: as §2

Zea mays = test: Test Example 4: effect on crop by application to foliage (diluvial soil, plastic box); details: application to foliage, application herbicide amount 320 g/ha
Outline: as §2

[2] = application herbicide amount 400 g/ha
[3] = application herbicide amount 320 g/ha

CCC(CC)c1nnc2c(C(=O)Nc3nnc(C)o3)ccc(C(F)(F)F)n12 [1-011]
H (Echinochloa crus-galli var. crus-galli) herbicidal ratio grade [1, 2]: 5 (Herbicidal ratio of 90% or more (almost completely withered)) | D (Leptochloa chinensis) herbicidal ratio grade (Leptochloa chinensis; [2]): 5 (Herbicidal ratio of 90% or more (almost completely withered)) | E (Cyperus difformis) herbicidal ratio grade (Cyperus difformis; [2]): 5 (Herbicidal ratio of 90% or more (almost completely withered)) | P (Stellaria media) herbicidal effect (Stellaria media): 5 (Herbicidal ratio of 90% or more (almost completely withered)) | N (Amaranthus retroflexus) herbicidal effect (Amaranthus retroflexus): 5 (Herbicidal ratio of 90% or more (almost completely withered)) | b (Zea mays) effect on crop (Zea mays): 0 (Herbicidal ratio of 5% or less (almost no effect))

Cc1nnc(NC(=O)c2ccc(C(F)(F)F)n3c(Br)nnc23)o1 [1-014]
H (Echinochloa crus-galli var. crus-galli) herbicidal ratio grade [1, 3]: 5 (Herbicidal ratio of 90% or more (almost completely withered)) | D (Leptochloa chinensis) herbicidal ratio grade (Leptochloa chinensis; [3]): 2 (Herbicidal ratio of 20% or more and less than 40%) | E (Cyperus difformis) herbicidal ratio grade (Cyperus difformis; [3]): 4 (Herbicidal ratio of 70% or more and less than 90%) | P (Stellaria media) herbicidal effect (Stellaria media): 5 (Herbicidal ratio of 90% or more (almost completely withered)) | N (Amaranthus retroflexus) herbicidal effect (Amaranthus retroflexus): 5 (Herbicidal ratio of 90% or more (almost completely withered)) | b (Zea mays) effect on crop (Zea mays): 1 (Herbicidal ratio of 5% or more and less than 20%)

COCc1nnc2c(C(=O)Nc3nnc(C)o3)ccc(C(F)(F)F)n12 [1-015]
H (Echinochloa crus-galli var. crus-galli) herbicidal ratio grade [1, 3]: 5 (Herbicidal ratio of 90% or more (almost completely withered)) | D (Leptochloa chinensis) herbicidal ratio grade (Leptochloa chinensis; [3]): 5 (Herbicidal ratio of 90% or more (almost completely withered)) | E (Cyperus difformis) herbicidal ratio grade (Cyperus difformis; [3]): 4 (Herbicidal ratio of 70% or more and less than 90%) | P (Stellaria media) herbicidal effect (Stellaria media): 5 (Herbicidal ratio of 90% or more (almost completely withered)) | N (Amaranthus retroflexus) herbicidal effect (Amaranthus retroflexus): 5 (Herbicidal ratio of 90% or more (almost completely withered)) | b (Zea mays) effect on crop (Zea mays): 0 (Herbicidal ratio of 5% or less (almost no effect))

COc1ccc(-c2nnc3c(C(=O)Nc4nnc(C)o4)ccc(C(F)(F)F)n23)cc1 [1-016]
H (Echinochloa crus-galli var. crus-galli) herbicidal ratio grade [1, 3]: 5 (Herbicidal ratio of 90% or more (almost completely withered)) | D (Leptochloa chinensis) herbicidal ratio grade (Leptochloa chinensis; [3]): 5 (Herbicidal ratio of 90% or more (almost completely withered)) | E (Cyperus difformis) herbicidal ratio grade (Cyperus difformis; [3]): 5 (Herbicidal ratio of 90% or more (almost completely withered)) | P (Stellaria media) herbicidal effect (Stellaria media): 5 (Herbicidal ratio of 90% or more (almost completely withered)) | N (Amaranthus retroflexus) herbicidal effect (Amaranthus retroflexus): 5 (Herbicidal ratio of 90% or more (almost completely withered)) | b (Zea mays) effect on crop (Zea mays): 0 (Herbicidal ratio of 5% or less (almost no effect))

Cc1nnc(NC(=O)c2ccc(C(F)(F)F)n3c(-c4ccc(Cl)cc4)nnc23)o1 [1-017]
H (Echinochloa crus-galli var. crus-galli) herbicidal ratio grade [1, 3]: 4 (Herbicidal ratio of 70% or more and less than 90%) | D (Leptochloa chinensis) herbicidal ratio grade (Leptochloa chinensis; [3]): 3 (Herbicidal ratio of 40% or more and less than 70%) | E (Cyperus difformis) herbicidal ratio grade (Cyperus difformis; [3]): 4 (Herbicidal ratio of 70% or more and less than 90%) | P (Stellaria media) herbicidal effect (Stellaria media): 4 (Herbicidal ratio of 70% or more and less than 90%) | N (Amaranthus retroflexus) herbicidal effect (Amaranthus retroflexus): 5 (Herbicidal ratio of 90% or more (almost completely withered)) | b (Zea mays) effect on crop (Zea mays): 0 (Herbicidal ratio of 5% or less (almost no effect))

COCCOCc1nnc2c(C(=O)Nc3nnc(C)o3)ccc(C(F)(F)F)n12 [1-019]
H (Echinochloa crus-galli var. crus-galli) herbicidal ratio grade [1, 3]: 5 (Herbicidal ratio of 90% or more (almost completely withered)) | D (Leptochloa chinensis) herbicidal ratio grade (Leptochloa chinensis; [3]): 5 (Herbicidal ratio of 90% or more (almost completely withered)) | E (Cyperus difformis) herbicidal ratio grade (Cyperus difformis; [3]): 5 (Herbicidal ratio of 90% or more (almost completely withered)) | P (Stellaria media) herbicidal effect (Stellaria media): 5 (Herbicidal ratio of 90% or more (almost completely withered)) | N (Amaranthus retroflexus) herbicidal effect (Amaranthus retroflexus): 5 (Herbicidal ratio of 90% or more (almost completely withered)) | b (Zea mays) effect on crop (Zea mays): 2 (Herbicidal ratio of 20% or more and less than 40%)

Cc1nnc(NC(=O)c2ccc(C(F)(F)F)n3c(COCC(F)(F)F)nnc23)o1 [1-020]
H (Echinochloa crus-galli var. crus-galli) herbicidal ratio grade [1, 3]: 5 (Herbicidal ratio of 90% or more (almost completely withered)) | D (Leptochloa chinensis) herbicidal ratio grade (Leptochloa chinensis; [3]): 4 (Herbicidal ratio of 70% or more and less than 90%) | E (Cyperus difformis) herbicidal ratio grade (Cyperus difformis; [3]): 4 (Herbicidal ratio of 70% or more and less than 90%) | P (Stellaria media) herbicidal effect (Stellaria media): 4 (Herbicidal ratio of 70% or more and less than 90%) | N (Amaranthus retroflexus) herbicidal effect (Amaranthus retroflexus): 4 (Herbicidal ratio of 70% or more and less than 90%) | b (Zea mays) effect on crop (Zea mays): 0 (Herbicidal ratio of 5% or less (almost no effect))

CCC(C)c1nnc2c(C(=O)Nc3nnc(C)o3)ccc(C(F)(F)F)n12 (stereo not drawn) [1-021]
H (Echinochloa crus-galli var. crus-galli) herbicidal ratio grade [1, 3]: 5 (Herbicidal ratio of 90% or more (almost completely withered)) | D (Leptochloa chinensis) herbicidal ratio grade (Leptochloa chinensis; [3]): 5 (Herbicidal ratio of 90% or more (almost completely withered)) | E (Cyperus difformis) herbicidal ratio grade (Cyperus difformis; [3]): 5 (Herbicidal ratio of 90% or more (almost completely withered)) | P (Stellaria media) herbicidal effect (Stellaria media): 5 (Herbicidal ratio of 90% or more (almost completely withered)) | N (Amaranthus retroflexus) herbicidal effect (Amaranthus retroflexus): 5 (Herbicidal ratio of 90% or more (almost completely withered)) | b (Zea mays) effect on crop (Zea mays): 1 (Herbicidal ratio of 5% or more and less than 20%)

Cc1cc(-c2nnc3c(C(=O)Nc4nnc(C)o4)ccc(C(F)(F)F)n23)no1 [1-022]
H (Echinochloa crus-galli var. crus-galli) herbicidal ratio grade [1, 3]: 5 (Herbicidal ratio of 90% or more (almost completely withered)) | D (Leptochloa chinensis) herbicidal ratio grade (Leptochloa chinensis; [3]): 5 (Herbicidal ratio of 90% or more (almost completely withered)) | E (Cyperus difformis) herbicidal ratio grade (Cyperus difformis; [3]): 4 (Herbicidal ratio of 70% or more and less than 90%) | P (Stellaria media) herbicidal effect (Stellaria media): 4 (Herbicidal ratio of 70% or more and less than 90%) | N (Amaranthus retroflexus) herbicidal effect (Amaranthus retroflexus): 5 (Herbicidal ratio of 90% or more (almost completely withered)) | b (Zea mays) effect on crop (Zea mays): 0 (Herbicidal ratio of 5% or less (almost no effect))

CCCc1nnc2c(C(=O)Nc3nnc(C)o3)ccc(C(F)(F)F)n12 [1-024]
H (Echinochloa crus-galli var. crus-galli) herbicidal ratio grade [1, 3]: 5 (Herbicidal ratio of 90% or more (almost completely withered)) | D (Leptochloa chinensis) herbicidal ratio grade (Leptochloa chinensis; [3]): 4 (Herbicidal ratio of 70% or more and less than 90%) | E (Cyperus difformis) herbicidal ratio grade (Cyperus difformis; [3]): 4 (Herbicidal ratio of 70% or more and less than 90%) | P (Stellaria media) herbicidal effect (Stellaria media): 4 (Herbicidal ratio of 70% or more and less than 90%) | N (Amaranthus retroflexus) herbicidal effect (Amaranthus retroflexus): 5 (Herbicidal ratio of 90% or more (almost completely withered)) | b (Zea mays) effect on crop (Zea mays): 0 (Herbicidal ratio of 5% or less (almost no effect))

Cc1nnc(NC(=O)c2ccc(C(F)(F)F)n3c(C4CCCC4)nnc23)o1 [1-026]
H (Echinochloa crus-galli var. crus-galli) herbicidal ratio grade [1, 3]: 5 (Herbicidal ratio of 90% or more (almost completely withered)) | D (Leptochloa chinensis) herbicidal ratio grade (Leptochloa chinensis; [3]): 4 (Herbicidal ratio of 70% or more and less than 90%) | E (Cyperus difformis) herbicidal ratio grade (Cyperus difformis; [3]): 4 (Herbicidal ratio of 70% or more and less than 90%) | P (Stellaria media) herbicidal effect (Stellaria media): 5 (Herbicidal ratio of 90% or more (almost completely withered)) | N (Amaranthus retroflexus) herbicidal effect (Amaranthus retroflexus): 4 (Herbicidal ratio of 70% or more and less than 90%) | b (Zea mays) effect on crop (Zea mays): 0 (Herbicidal ratio of 5% or less (almost no effect))

CCOCc1nnc2c(C(=O)Nc3nnc(C)o3)ccc(C(F)(F)F)n12 [1-027]
H (Echinochloa crus-galli var. crus-galli) herbicidal ratio grade [1, 3]: 5 (Herbicidal ratio of 90% or more (almost completely withered)) | D (Leptochloa chinensis) herbicidal ratio grade (Leptochloa chinensis; [3]): 5 (Herbicidal ratio of 90% or more (almost completely withered)) | E (Cyperus difformis) herbicidal ratio grade (Cyperus difformis; [3]): 5 (Herbicidal ratio of 90% or more (almost completely withered)) | P (Stellaria media) herbicidal effect (Stellaria media): 5 (Herbicidal ratio of 90% or more (almost completely withered)) | N (Amaranthus retroflexus) herbicidal effect (Amaranthus retroflexus): 5 (Herbicidal ratio of 90% or more (almost completely withered)) | b (Zea mays) effect on crop (Zea mays): 0 (Herbicidal ratio of 5% or less (almost no effect))

Cc1nnc(NC(=O)c2ccc(C(F)(F)F)n3c(C4=NOC(C)(C)C4)nnc23)o1 [1-029]
H (Echinochloa crus-galli var. crus-galli) herbicidal ratio grade [1, 3]: 4 (Herbicidal ratio of 70% or more and less than 90%) | D (Leptochloa chinensis) herbicidal ratio grade (Leptochloa chinensis; [3]): 5 (Herbicidal ratio of 90% or more (almost completely withered)) | E (Cyperus difformis) herbicidal ratio grade (Cyperus difformis; [3]): 4 (Herbicidal ratio of 70% or more and less than 90%) | P (Stellaria media) herbicidal effect (Stellaria media): 5 (Herbicidal ratio of 90% or more (almost completely withered)) | N (Amaranthus retroflexus) herbicidal effect (Amaranthus retroflexus): 5 (Herbicidal ratio of 90% or more (almost completely withered)) | b (Zea mays) effect on crop (Zea mays): 3 (Herbicidal ratio of 40% or more and less than 70%)

CSCc1nnc2c(C(=O)Nc3nnc(C)o3)ccc(C(F)(F)F)n12 [1-030]
H (Echinochloa crus-galli var. crus-galli) herbicidal ratio grade [1, 3]: 5 (Herbicidal ratio of 90% or more (almost completely withered)) | D (Leptochloa chinensis) herbicidal ratio grade (Leptochloa chinensis; [3]): 5 (Herbicidal ratio of 90% or more (almost completely withered)) | E (Cyperus difformis) herbicidal ratio grade (Cyperus difformis; [3]): 5 (Herbicidal ratio of 90% or more (almost completely withered)) | P (Stellaria media) herbicidal effect (Stellaria media): 5 (Herbicidal ratio of 90% or more (almost completely withered)) | N (Amaranthus retroflexus) herbicidal effect (Amaranthus retroflexus): 5 (Herbicidal ratio of 90% or more (almost completely withered)) | b (Zea mays) effect on crop (Zea mays): 3 (Herbicidal ratio of 40% or more and less than 70%)

Cc1nnc(NC(=O)c2ccc(C(F)(F)F)n3c(CSCC(F)(F)F)nnc23)o1 [1-031]
H (Echinochloa crus-galli var. crus-galli) herbicidal ratio grade [1, 3]: 5 (Herbicidal ratio of 90% or more (almost completely withered)) | D (Leptochloa chinensis) herbicidal ratio grade (Leptochloa chinensis; [3]): 4 (Herbicidal ratio of 70% or more and less than 90%) | E (Cyperus difformis) herbicidal ratio grade (Cyperus difformis; [3]): 3 (Herbicidal ratio of 40% or more and less than 70%) | P (Stellaria media) herbicidal effect (Stellaria media): 4 (Herbicidal ratio of 70% or more and less than 90%) | N (Amaranthus retroflexus) herbicidal effect (Amaranthus retroflexus): 4 (Herbicidal ratio of 70% or more and less than 90%) | b (Zea mays) effect on crop (Zea mays): 0 (Herbicidal ratio of 5% or less (almost no effect))
